Assay results: patent US6632421B2, “Deodorant composition comprising a water-soluble zinc salt as odor-absorbing agent” (L'Oreal, priority 1996, dated 2003)

Experiment: odour absorption test with respect to natural sweat (sniff test on flasks)
Set-up: species or system human
Description: An odour absorption test was carried out with respect to natural sweat.
The axillary sweat from a number of people was thus removed in a sauna and combined to produce a sweat sample. In order to obtain the characteristic nauseating smell of sweat, before introducing the active substance, this sweat sample was incubated for 14 hours at a temperature of 37° C. 1 ml of the incubated sweat sample was introduced into each flask of active substance to be tested and into a control flask (without active substance). The active substance: 5.5 mg of Zn ion in the form of zinc pidolate, zinc chloride, zinc gluconate, zinc lactate, zinc phenolsulphonate and zinc sulphate, was then introduced respectively into each of the flasks of active substance to be tested.
The flasks were then incubated for a second time for 24 hours at a temperature of 37° C. and then for a third time for 3 days at room temperature.
Eight judges then smelled (“sniff test”) each of these flasks and graded the intensity of the smell on a scale from 0 to 4.

| Molecule | absorption effect on the smell of sweat (sample containing a bactericide, check that the test is truly an odour absorption test) | intensity of the smell, grade on a scale from 0 to 4 (0=no smell, 4=strong smell) (5.5 mg of Zn ion in 1 ml incubated sweat, 24 hours at 37° C. then 3 days at room temperature, eight judges, control flask graded 4) |
| --- | --- | --- |
| Oc1cc(Cl)ccc1Oc1ccc(Cl)cc1Cl [triclosan, 5-chloro-2-(2,4-dichlorophenoxy)phenol] | no absorption effect |  |
| zinc pyrrolidonecarboxylate [zinc pidolate] |  | best results |
